Data: patent US20190060308A1, “PHARMACEUTICAL COMPOSITION COMPRISING AN OMEGA-3 FATTY ACID AND A HYDROXY-DERIVATIVE OF A STATIN AND METHODS OF USING SAME” (Amarin Pharmaceuticals Ireland Limited, priority 2012, published 2019)

What was measured:
[1] = test system: human umbilical vein epithelial cells (HUVECs); assay: NO and ONOO^− release by HUVECs following stimulation with oxidized LDL (Example 2); type: cell-based; settings: calcium ionophore 1.0 μM, oxLDL 10 mg/dL, EPA 10.0 μM, rosuvastatin or ATM 1.0 μM
Procedure: An experiment was conducted to test the effects of EPA with rosuvastatin or atorvastatin active o-hydroxyl metabolite (“ortho-hydroxy atorvastatin” or “ATM”) on nitric oxide (NO) and peroxynitrite (ONOO^−) release by human umbilical vein epithelial cells (“HUVECs”) following stimulation with oxidized LDL. Nitric oxide bioavailability, peroxynitrite bioavailability, and the ratio of bioavailable nitric oxide to bioavailable peroxynitrite (NO/ONOO^−) serve as useful indicators of endothelial cell function. In particular, the NO/ONOO^− ratio can serve as an indicator of normal epithelial cell function.
In this experiment, HUVECs were equipped with prophyrinic nanosensors and then treated with calcium ionophore (1.0 μM). The HUVECs were then exposed to a solution of oxidized LDL (10 mg/dL).
HUVECs exposed to oxLDL were then treated with EPA alone (10.0 μM), a combination of EPA (10.0 μM) and rosuvastatin (1.0 μM), or a combination of EPA (10.0 μM) and ATM (1.0 μM).

[2] = test system: human umbilical vein endothelial cells (HUVECs); assay: NO and ONOO^− release from HUVECs exposed to oxLDL, tandem electrochemical nanosensors (Example 3); type: cell-based; settings: for increase in NO/ONOO^− ratio: versus treatment with oxLDL and vehicle only, statin 1.0 μM
Procedure: An experiment was conducted to test the effects of EPA with rosuvastatin, atorvastatin or o-hydroxyatorvastatin (an active hydroxyl metabolite, “ATM”) on nitric oxide (NO) and peroxynitrite (ONOO^−) release by human umbilical vein epithelial cells (“HUVECs”) following stimulation with oxidized LDL. Nitric oxide bioavailability, peroxynitrite bioavailability, and the ratio of bioavailable nitric oxide to bioavailable peroxynitrite (NO/ONOO^−) serve as useful indicators of endothelial cell function. In particular, the NO/ONOO^− ratio can serve as an indicator of normal epithelial cell function.
Human umbilical vein endothelial cells (HUVECs) were isolated into primary cultures from female donors by Clonetics (San Diego, Calif.) and purchased as proliferating cells. All cell culture donors were healthy, with no pregnancy or prenatal complications. […] The confluent cells (4 to 5×10^5 cells/35 mm dish) were placed with minimum essential medium containing 3 mM L-arginine and 0.1 mM BH4 [(6R)-5,6,7,8-tetrahydrobiopterin]. Before experimental use, the cells (from second or third passage) were rinsed twice with Tyrode-HEPES buffer with 1.8 mM CaCl2).
The effects of EPA treatment were tested in the absence and presence of statins in HUVECs following exposure to oxidized LDL (oxLDL). The oxLDL causes eNOS uncoupling and endothelial dysfunction to reproduced disease-like conditions. Venous blood from healthy normolipidemic volunteers was collected into Na-EDTA (1 mg/mL blood) vacuum tubes after a 12-hour fast. Plasma was immediately separated by centrifugation at 3,000 g for 10 minutes at 4° C. […] The purified LDL was dialyzed for 96 hours against PBS containing 0.3 mM EDTA at 4° C., then stored at 4° C.
A sample of LDL was dialyzed against Tris/NaCl Buffer (50 mM Tris in 0.15 M NaCl, pH 8.0) to remove the EDTA. Tris-NaCl buffer was added to the dialyzed n-LDL to adjust the protein concentration to 30 mg/mL. A 1-mL aliquot of 20 μM CuSO4 was added to 1 mL of dialyzed normal LDL. Oxidation at 37° C. was followed spectrophotometrically (234 nm) over a period of 24 hours until oxidation was complete. The oxLDL was then dialyzed at 4° C. with 4 L of Tris buffer, filtered with a 0.22 μm filter, and stored under nitrogen at 4° C.
Oxidation was monitored by the use of measurements of TBARS. Briefly, LDL was incubated with thiobarbituric acid (0.5 wt/vol, in H2SO4, 50 mM) for 30 minutes at 100° C. […] TBARS concentration was determined as malondialdehyde (MDA) equivalents with the use of an MDA standard curve.
Concurrent measurements of NO and ONOO^− were performed with tandem electrochemical nanosensors combined into one working unit with a total diameter of 200-400 nm. Their design was based on previously developed and chemically modified carbon-fiber technology. Each of the nanosensors was made by depositing a sensing material on the tip of a carbon fiber (length 4 to 5 μm, diameter 100-200 nm). The fibers were sealed with nonconductive epoxy and electrically connected to copper wires with conductive silver epoxy. Conductive films of polymeric Ni(II) tetrakis (3-methoxy-4-hydroxyphenyl) porphyrin and Mn(III) [2.2] paracyclophanylporphyrin were used for the NO and ONOO^− sensors, respectively.
The amperometric method (with a response time of 0.1 ms) provides a quantitative signal (current) that is directly proportional to changes (from basal levels) in NO or ONOO^− concentration. Amperometric measurements were performed with a Gamry III double-channel potentiostat. Basal NO or ONOO^− levels were measured by differential pulse voltammetry in separate experiments.
All measurements of NO and ONOO^− were performed on intact endothelial cells. The NO/ONOO^− nanosensor module was positioned 5±2 μm from the surface of each individual endothelial cell using a computer-controlled M3301 micromanipulator (x-y-z resolution of 0.2 μm) and microscope (both from World Precision Instruments, Berlin, Germany) fitted with a CD camera.

[3] = HUVECs exposed to oxLDL, EPA 10 μM
[4] = compared to treatment with oxLDL and vehicle only, EPA 10 μM

| SMILES | NO [1] [nM] | NO/ONOO^− [1] | ONOO^− [1] [nM] | increase in NO/ONOO^− ratio ([2]; EPA 10 μM) [%] | NO release [2, 3] [nM] | ONOO^− release [2, 3] [nM] | increase in NO release [2, 4] [%] | reduction of ONOO^− release [2, 4] [%] | increase in NO/ONOO^− ratio (in words) ([2]; HUVECs exposed to oxLDL, VAS2870 alone or with EPA and statin) |
| --- | --- | --- | --- | --- | --- | --- | --- | --- | --- |
| CC(C)c1c(C(=O)Nc2ccccc2O)c(-c2ccccc2)c(-c2ccc(F)cc2)n1CC[C@@H](O)C[C@@H](O)CC(=O)O [ATM, o-hydroxyatorvastatin] | 199 ± 20 | 0.8 | 236 ± 35 | 33 | – | – | – | – | – |
| CC/C=C\C/C=C\C/C=C\C/C=C\C/C=C\CCCC(=O)O [EPA, eicosapentaenoic acid] | 208 ± 32 | 1.0 | 203 ± 21 | 41 | 208 ± 32 | 203 ± 21 | 18 | 16 | – |
| c1ccc(Cn2nnc3c(Sc4nc5ccccc5o4)ncnc32)cc1 [VAS2870] | – | – | – | – | – | – | – | – | two-fold |
| CC(C)c1c(C(=O)Nc2ccccc2)c(-c2ccccc2)c(-c2ccc(F)cc2)n1CC[C@@H](O)C[C@@H](O)CC(=O)O [atorvastatin] | – | – | – | 84 | – | – | – | – | – |
| CC(C)c1nc(N(C)S(C)(=O)=O)nc(-c2ccc(F)cc2)c1/C=C/[C@@H](O)C[C@@H](O)CC(=O)O [rosuvastatin] | 191 ± 33 | 0.8 | 252 ± 39 | 21 | – | – | – | – | – |
